Measured values as given in patent US10793549B2, “Sulfuryl-substituted benzoheterocyclic derivative, preparation method and medical use thereof” (SHANGHAI HAIYAN PHARMACEUTICAL TECHNOLOGY CO., LTD., priority 2016, dated 2020).
pIC50: −log10 of the molar value.

Tests used:
EZH2 Y641F = EZH2 Y641F (Homo sapiens (Human), UniProt Q15910, Y641F); test: In vitro methyltransferase activity test (LANCE Ultra); assay type: biochemical; conditions: Recombinant PRC2 (EZH2-Y641F), 2.5 μM SAM/250 nM H3(1-50)K27me1, 3 hours, room temperature
Protocol: The detection system uses LANCEUltra system (Perkinelmer company). […] And then a buffer [20 mM Tris pH8.5, 2 mM MgCl2, 0.01% Tween-20, 1 mM TCEP] containing 2.5 μM SAM/250 nM H3 (1-50)K27me1 premixtures was added, thus the enzyme reaction was started at room temperature. After reacting for 3 hours, a test solution premixed with PLL, detection antibody and Ulight was added, and reacted for 1h at room temperature, then the fluorescence value was read on a Tecan infinite pro. IC50 was calculated by fitting a four-factor model in the XLfit software.

Pfeiffer cells = test: Cell proliferation test (Cell counting kit-8, 6 days); assay type: cell-based; conditions: Pfeiffer (CRL-2632) cells, culture for 6 days, viable cells by Cell counting kit-8
Protocol: The used cell lines Pfeiffer (CRL-2632), suDHL-6 (CRL-2959) and suDHL-10 (CRL-2963) were purchased from American Type Culture Collection (ATCC). All cell lines were cultured in RPMI-1640 medium (Gibco) containing 10% fetal bovine serum (Gibco). The cultured cells were collected by centrifugation and the cell density was measured on a CounterStar counter. Appropriate number of cells were then seeded in a 96-well culture plate and incubated overnight. Compounds to be tested were diluted by 8 gradient points in a ratio of 1:3 and added into the corresponding wells. After continuing to culture for 6 days, the number of viable cells was measured with Cell counting kit-8, and the absorbance value was read on Tecan infinite pro. The IC50 was calculated by fitting a four-parameter model in the XLfit software.

Chain of EZH2 Y641F (Q15910 whole entry Y641F): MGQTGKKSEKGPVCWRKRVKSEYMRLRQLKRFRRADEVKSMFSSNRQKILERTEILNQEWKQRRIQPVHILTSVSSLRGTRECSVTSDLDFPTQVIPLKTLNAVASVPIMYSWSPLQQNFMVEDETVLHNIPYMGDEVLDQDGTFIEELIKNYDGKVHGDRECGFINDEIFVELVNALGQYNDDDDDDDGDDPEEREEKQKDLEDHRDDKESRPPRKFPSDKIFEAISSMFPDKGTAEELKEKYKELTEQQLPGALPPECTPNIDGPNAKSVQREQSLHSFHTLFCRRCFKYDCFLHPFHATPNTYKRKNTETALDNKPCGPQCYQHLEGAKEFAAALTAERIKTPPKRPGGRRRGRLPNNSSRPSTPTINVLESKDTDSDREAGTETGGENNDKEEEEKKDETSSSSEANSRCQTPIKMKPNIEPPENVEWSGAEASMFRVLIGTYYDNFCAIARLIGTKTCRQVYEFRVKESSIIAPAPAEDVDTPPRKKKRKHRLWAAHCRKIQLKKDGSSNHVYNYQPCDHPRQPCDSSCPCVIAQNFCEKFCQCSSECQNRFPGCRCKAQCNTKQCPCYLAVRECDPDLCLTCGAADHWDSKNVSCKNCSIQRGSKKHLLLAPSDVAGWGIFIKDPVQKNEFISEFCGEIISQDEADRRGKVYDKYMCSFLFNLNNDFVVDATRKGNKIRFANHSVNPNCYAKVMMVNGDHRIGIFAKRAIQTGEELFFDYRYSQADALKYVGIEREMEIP
Chain of EZH2 Y641F (O75530 whole entry partner): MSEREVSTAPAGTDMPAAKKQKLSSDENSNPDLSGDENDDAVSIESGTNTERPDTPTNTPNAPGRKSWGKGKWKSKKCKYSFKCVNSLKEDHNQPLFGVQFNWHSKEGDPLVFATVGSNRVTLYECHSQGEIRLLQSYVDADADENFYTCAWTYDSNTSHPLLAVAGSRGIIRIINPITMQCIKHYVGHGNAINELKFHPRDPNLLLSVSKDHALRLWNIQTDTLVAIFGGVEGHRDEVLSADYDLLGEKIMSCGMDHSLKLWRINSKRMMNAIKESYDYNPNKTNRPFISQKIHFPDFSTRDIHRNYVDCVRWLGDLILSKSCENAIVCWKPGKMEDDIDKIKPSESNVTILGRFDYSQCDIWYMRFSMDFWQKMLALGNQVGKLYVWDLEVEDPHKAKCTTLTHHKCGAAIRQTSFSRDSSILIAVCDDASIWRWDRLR
Chain of EZH2 Y641F (Q15022 whole entry partner): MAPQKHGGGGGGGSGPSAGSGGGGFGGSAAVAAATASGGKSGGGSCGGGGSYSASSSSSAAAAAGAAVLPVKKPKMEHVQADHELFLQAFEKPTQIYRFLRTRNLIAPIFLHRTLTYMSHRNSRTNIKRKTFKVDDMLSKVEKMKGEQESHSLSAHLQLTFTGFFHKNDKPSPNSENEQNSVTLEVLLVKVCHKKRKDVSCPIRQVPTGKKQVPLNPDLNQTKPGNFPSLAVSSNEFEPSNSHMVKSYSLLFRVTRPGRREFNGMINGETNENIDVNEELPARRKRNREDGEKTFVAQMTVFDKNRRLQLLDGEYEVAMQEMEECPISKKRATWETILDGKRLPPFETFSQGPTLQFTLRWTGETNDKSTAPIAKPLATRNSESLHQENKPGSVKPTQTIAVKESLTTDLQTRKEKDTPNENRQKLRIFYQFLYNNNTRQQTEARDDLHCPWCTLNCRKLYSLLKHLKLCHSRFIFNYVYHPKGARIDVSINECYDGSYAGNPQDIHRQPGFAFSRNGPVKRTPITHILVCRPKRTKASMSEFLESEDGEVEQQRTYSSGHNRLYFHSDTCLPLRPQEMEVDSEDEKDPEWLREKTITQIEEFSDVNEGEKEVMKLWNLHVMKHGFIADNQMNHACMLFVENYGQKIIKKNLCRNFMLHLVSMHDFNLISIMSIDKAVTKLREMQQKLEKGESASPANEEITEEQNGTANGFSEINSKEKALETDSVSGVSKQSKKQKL
Chain of EZH2 Y641F (Q09028 whole entry partner): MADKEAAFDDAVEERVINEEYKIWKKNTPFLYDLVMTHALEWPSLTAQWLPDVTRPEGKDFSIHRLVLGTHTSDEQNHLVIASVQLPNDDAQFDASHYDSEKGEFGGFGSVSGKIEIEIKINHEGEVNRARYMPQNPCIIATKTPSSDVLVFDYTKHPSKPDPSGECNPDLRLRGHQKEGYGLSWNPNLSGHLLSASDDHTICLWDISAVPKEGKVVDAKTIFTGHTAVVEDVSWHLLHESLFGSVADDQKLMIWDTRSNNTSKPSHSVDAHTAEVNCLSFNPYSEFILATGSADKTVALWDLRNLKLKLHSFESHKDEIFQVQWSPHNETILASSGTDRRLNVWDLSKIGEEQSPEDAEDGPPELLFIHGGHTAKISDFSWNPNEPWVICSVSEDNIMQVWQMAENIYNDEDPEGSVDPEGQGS
Chain of EZH2 Y641F (Q6ZN18 whole entry partner): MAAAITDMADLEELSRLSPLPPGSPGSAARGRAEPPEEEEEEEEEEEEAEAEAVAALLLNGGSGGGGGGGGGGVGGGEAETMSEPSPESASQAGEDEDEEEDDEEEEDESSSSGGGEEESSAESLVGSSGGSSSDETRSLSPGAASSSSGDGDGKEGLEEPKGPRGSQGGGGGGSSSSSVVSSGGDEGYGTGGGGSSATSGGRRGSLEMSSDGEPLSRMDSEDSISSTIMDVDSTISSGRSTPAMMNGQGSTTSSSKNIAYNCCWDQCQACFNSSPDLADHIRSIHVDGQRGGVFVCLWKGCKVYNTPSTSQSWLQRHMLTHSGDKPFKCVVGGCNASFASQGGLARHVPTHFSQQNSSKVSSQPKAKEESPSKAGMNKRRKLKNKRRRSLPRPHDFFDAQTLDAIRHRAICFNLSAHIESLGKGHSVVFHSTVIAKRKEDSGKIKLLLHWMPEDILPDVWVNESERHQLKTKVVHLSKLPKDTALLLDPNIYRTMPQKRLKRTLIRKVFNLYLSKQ

| SMILES | pIC50 (EZH2 Y641F) | pIC50 (Pfeiffer cells) | pIC50 (Pfeiffer cells; Homo sapiens, 144 h) |
| --- | --- | --- | --- |
| C=CCC1(S(=O)(=O)N2CC(C)c3c(C(=O)NCc4c(C)cc(C)[nH]c4=O)cc(-c4ccc(CN(C)C)cc4)cc32)CC1 (centres unmarked) [Compound G-75] | 6.55 | 5.74 | – |
| C=CCC1(S(=O)(=O)n2cc(C)c3c(C(=O)NCc4c(C)cc(C)[nH]c4=O)cc(-c4ccc(N(C)C)nc4)cc32)CC1 [Compound G-8] | 7.40 | 6.49 | – |
| C=CCC1(S(=O)(=O)n2cc(OC)c3c(C(=O)NCc4c(C)cc(C)[nH]c4=O)cc(-c4ccc(N5CCN(C)CC5)nc4)cc32)CC1 [Compound G-14] | 8.30 | 7.57 | – |
| C=CCC1(S(=O)(=O)N2CC(C)c3c(C(=O)NCc4c(C)cc(C)[nH]c4=O)cc(-c4ccc(N5CCN(C)CC5)nc4)cc32)CC1 (centres unmarked) [Compound G-77] | 6.83 | 5.82 | – |
| C=CCC1(S(=O)(=O)n2cc(C)c3c(C(=O)NCc4c(C)cc(C)[nH]c4=O)cc(-c4cnc(N5CC(F)C5)nc4)cc32)CC1 [Compound G-24] | 7.49 | 7.22 | – |
| C=CCC1(S(=O)(=O)n2cc(C)c3c(C(=O)NCc4c(C)cc(C)[nH]c4=O)cc(-c4ccc(CN(C)C)cc4F)cc32)CC1 [Compound G-18] | 7.38 | 6.43 | – |
| Cc1cc(C)c(CNC(=O)c2cc(-c3ccc(N4CCN(C)CC4)nc3)cc3c2CCN3S(=O)(=O)C(C)C)c(=O)[nH]1 [Compound G-47, N-((4,6-dimethyl-2-oxo-1,2-dihydropyridin-3-yl)methyl)-1-(isopropylsulfonyl)-6-(6-(4-methylpiperazin-1-yl)pyridin-3-yl)dihydroindole-4-carboxamide] | 6.80 | 5.69 | – |
| C=CCC1(S(=O)(=O)n2cc(C)c3c(C(=O)NCc4c(OC)cc(C)[nH]c4=O)cc(-c4cnc(N5CC(F)C5)nc4)cc32)CC1 [Compound G-30] | 8.05 | 7.01 | – |
| C=CCC1(S(=O)(=O)n2cc(C)c3c(C(=O)NCc4c(C)cc(C)[nH]c4=O)cc(-c4ccc(OCCCN(C)C)cc4)cc32)CC1 [Compound G-11] | 7.49 | – | – |
| C=CCC1(S(=O)(=O)n2cc(C)c3c(C(=O)NCc4c(C)cc(C)[nH]c4=O)cc(-c4ccc(C#N)nc4)cc32)CC1 [Compound G-10] | 7.39 | – | – |
| C=CCC1(S(=O)(=O)n2cc(C)c3c(C(=O)NCc4c(C)cc(C)[nH]c4=O)cc(-c4ccc(N5CCN(C(C)C)CC5)nc4)cc32)CC1 [Compound G-48, 1-(1-allylcyclopropylsulfonyl)-N-((4,6-dimethyl-2-oxo-1,2-dihydropyridin-3-yl)methyl)-6-(6-(4-isopropylpiperazin-1-yl)pyridin-3-yl)-3-methyl-1H-indole-4-carboxamide] | 7.55 | – | 6.68 |
| C=CCC1(S(=O)(=O)n2nc(C(F)F)c3c(C(=O)NCc4c(C)cc(C)[nH]c4=O)cc(-c4ccc(N5CCN(C)CC5)nc4)cc32)CC1 [Compound G-78] | 5.85 | 5.60 | – |
| C=CCC1(S(=O)(=O)n2nc(C)c3c(C(=O)NCc4c(C)cc(C)[nH]c4=O)cc(-c4ccc(N5CCN(C)CC5)nc4)cc32)CC1 [Compound G-79] | 6.23 | 5.55 | – |

More lines, in order of rising pIC50 (EZH2 Y641F), values ahead:

| pIC50 (EZH2 Y641F) | SMILES | pIC50 (Pfeiffer cells) | pIC50 (Pfeiffer cells; Homo sapiens, 144 h) |
| --- | --- | --- | --- |
| 6.34 | C=CCC1(S(=O)(=O)N2CCc3c(C(=O)NCc4c(C)cc(C)[nH]c4=O)cc(-c4ccc(N5CCN(C)CC5)nc4)cc32)CC1 [Compound G-76] | 5.59 | – |
| 6.71 | C#CCCS(=O)(=O)n1cc(C)c2c(C(=O)NCc3c(OC)cc(C)[nH]c3=O)cc(-c3ccc(N4CCN(C)CC4)nc3)cc21 [Compound G-81] | 5.42 | – |
| 7.24 | C=CCC1(S(=O)(=O)n2cc(C)c3c(C(=O)NCc4c(C)cc(C)[nH]c4=O)cc(-c4ccc(N5CCOCC5)nc4)cc32)CC1 [Compound G-12] | 6.31 | – |
| 7.43 | C=CCC1(S(=O)(=O)n2cc(C)c3c(C(=O)NCc4c(C)cc(C)[nH]c4=O)cc(-c4ccc(F)c(CN(C)C)c4)cc32)CC1 [Compound G-21] | – | – |
| 7.46 | C=CCC1(S(=O)(=O)n2cc(C)c3c(C(=O)NCc4c(C)cc(C)[nH]c4=O)cc(-c4ccc(N)nc4)cc32)CC1 [Compound G-9] | 6.35 | – |
| 7.47 | C=CCC1(S(=O)(=O)n2cc(C)c3c(C(=O)NCc4c(OC(F)F)cc(C)[nH]c4=O)cc(-c4ccc(N5CCN(C)CC5)nc4)cc32)CC1 [Compound G-68] | 6.82 | – |
| 7.48 | C=CCC1(S(=O)(=O)n2cc(C)c3c(C(=O)NCc4c(C)cc(C)[nH]c4=O)cc(-c4cccnc4)cc32)CC1 [Compound G-7] | 6.42 | – |
| 7.55 | C=CCC1(S(=O)(=O)n2cc(C)c3c(C(=O)NCc4c(C)cc(C)[nH]c4=O)cc(-c4ccc(CCN5CCOCC5)nc4)cc32)CC1 [Compound G-3] | 6.52 | – |
| 7.59 | C=CCC1(S(=O)(=O)n2cc(C)c3c(C(=O)NCc4c(OC)cc(C)[nH]c4=O)cc(N4CCN(C)CC4)cc32)CC1 [Compound G-69] | – | – |
| 7.60 | C=CCC1(S(=O)(=O)n2cc(C)c3c(C(=O)NCc4c(C)cc(C)[nH]c4=O)cc(-c4ccc(CN(C)C)cc4F)cc32)CC1 [Compound G-15] | 6.66 | – |
| 7.64 | C=CCC1(S(=O)(=O)n2cc(C)c3c(C(=O)NCc4c(C)cc(C)[nH]c4=O)cc(-c4ccc(CN(C)C)c(F)c4)cc32)CC1 [Compound G-16] | 6.47 | – |
| 7.66 | C=CCC1(S(=O)(=O)n2cc(C)c3c(C(=O)NCc4c(C)cc(C)[nH]c4=O)cc(-c4ccc(CN(C)C)cc4)cc32)CC1 [Compound G-4] | – | – |
| 7.72 | C=CCC1(S(=O)(=O)n2cc(C)c3c(C(=O)NCc4c(C)cc(C)[nH]c4=O)cc(-c4ccc(CN(C)C)cc4)cc32)CC1 [Compound G-6] | 6.45 | – |
| 7.77 | C=CCC1(S(=O)(=O)n2cc(C)c3c(C(=O)NCc4c(C)cc(C)[nH]c4=O)cc(-c4ccc(OCCN(C)C)cc4)cc32)CC1 [Compound G-5] | 6.37 | – |
| 7.77 | C=CCC1(S(=O)(=O)n2cc(C)c3c(C(=O)NCc4c(C)cc(C)[nH]c4=O)cc(-c4cnc(N5CCNCC5)nc4)cc32)CC1 [Compound G-65] | 6.77 | – |
| 7.80 | C=CCC1(S(=O)(=O)n2cc(C)c3c(C(=O)NCc4c(OC)cc(C)[nH]c4=O)cc(-c4ccc(N)nc4)cc32)CC1 [Compound G-36] | 7.07 | – |
| 7.89 | C=CCC1(S(=O)(=O)n2cc(C)c3c(C(=O)NCc4c(C)cc(C)[nH]c4=O)cc(-c4cnc(N5CCN(C)CC5)nc4)cc32)CC1 [Compound G-13] | 7.12 | – |
| 8.10 | C=CCC1(S(=O)(=O)n2cc(C)c3c(C(=O)NCc4c(OC)cc(C)[nH]c4=O)cc(-c4ccc(CN(C)C)cc4)cc32)CC1 [Compound G-32] | 7.10 | – |
| 8.15 | C=CCC1(S(=O)(=O)n2cc(C)c3c(C(=O)NCc4c(OC)cc(C)[nH]c4=O)cc(-c4cnc(N5CCN(C(C)C)CC5)nc4)cc32)CC1 [Compound G-67] | – | 7.66 |
